Assay results: patent EP0955049B1, “6 Beta-Hydroxy - 6 alpha, 17 alpha - dimethylpregn - 4 - ene - 3,20 - dione, as an inhibitor of smooth muscle proliferation” (Wyeth, priority 1994, dated 1995)

System: Primary rat aorta smooth muscle cell cultures
Test: smooth muscle cell proliferation ([3H]-thymidine incorporation)
Format: cell-based
Conditions: [3H]-thymidine (0.5 µCi/mL), 24 hours at 37°C, M 199 plus 10% fetal bovine serum, cells per well as percent of control
Text: This utility was established by subjecting the compound to the following standard experimental test procedure:
Primary rat aorta smooth muscle cell cultures grown in media 199 (Gibco ) plus 10% fetal bovine serum (Gibco) were washed with calcium, magnesium free Dulbecco's phosphate buffered saline and trypsinized for five minutes. Cells were scraped from culture dishes with a rubber policeman and centrifuged. Cells were resuspended in M 199 plus 10% fetal bovine serum containing [^3H)-thymidine (0.5 µCi/mL) at 8-15,000 cells/mL, and were placed into plate wells. The novel intermediate was added to each well and the plates were incubated for 24 hours at 37°C. in a 5% CO2 atmosphere. The cultured cells were treated with trichloracetic acid to remove acid soluble proteins, leaving only cell superstructure and DNA. These cells were solubilized, counted by scintillation and the results compared with control to determine the number of cells per well, the difference in cells being expressed as a percent of control.

CC(=O)[C@@]1(C)CC[C@H]2[C@@H]3C[C@@](C)(O)C4=CC(=O)CC[C@]4(C)[C@H]3CC[C@@]21C [6β - Hydroxy - 6α,17α - dimethylpregn - 4 - ene - 3,20 - dione]
IC50: 26.4 µM
